Laboratory results: patent publication US20220280462A1, “SOLID ORAL DOSAGE FORM COMPRISING NAPROXEN AND VITAMIN B1” (DSM IP ASSETS B.V., priority 2019, published 2022)
Where a name gives a salt, the structure may show the parent alone.

Test: Bulk density, tapped density and Carr Index (flowability) of powders and granules
Type: physicochemical
Details: for Carr Index: 100×(1−BD/TD), greater than 25 indicates poor flowability
Method: The Carr Index is calculated by the formula 100×(1−BD/TD) and is used as an indication of the flowability.

Row | SMILES | BD (bulk density) [g/mL] | TD (tapped density) [g/mL] | Carr Index | Description (appearance of powder) | flowability (in words, from Carr Index)
1 | Cc1ncc(CO)c(CO)c1O.Cl [Pyridoxine Hydrochloride, pyridoxine hydrochloride] | 0.44 | 0.62 | 30 |  | 
2 | Cc1ncc(C[n+]2csc(CCO)c2C)c(N)n1 [Thiamine hydrochloride, thiamine hydrochloride] | 0.26 | 0.46 | 44 |  | 
3 | COc1ccc2cc([C@H](C)C(=O)O)ccc2c1 [Naproxen Sodium, naproxen sodium] |  |  |  | very lumpy | poor flowability
